Columns and labels:
Staphylococcus carnosus = settings: before femB mutation; cited from earlier work
[1] = test system: Staphylococcus carnosus femB mutant; settings: cited from earlier work
[2] = NMR CSP residual binding of SH3b mutant domains to P4 ligand; settings: 32 equivalents
[3] = NMR CSP residual binding of SH3b mutant domains to G5 ligand; settings: 32 equivalents

lysostaphin: bacteriolytic enzyme produced and secreted by Staphylococcus simulans biovar staphylolyticus
MIC (Staphylococcus carnosus): 0.01 µg/mL | increase in the MIC values associated with femB mutation ([1]; femB mutant vs parent): 3000 fold | MIC ([1]; femB mutant): 32 µg/mL

B1: W489L: His-tagged lysostaphin SH3b domain with W489L substitution, for NMR (protein)
chain: SESASFTPNTDIITRTTGPFRSMPQSGVLKAGQTIHYDEVMKQDGHVWVGYTGNSGQRIYLPVRTWNKSTNTLGVLL
modifications: left off: His-tag, N-terminal, kept
residual binding (ratio of chemical shift changes of mutant to WT, averaged over all amino acids) [2]: 6.6%

B2: R427M: His-tagged lysostaphin SH3b domain with R427M substitution, for NMR (protein)
chain: SESASFTPNTDIITMTTGPFRSMPQSGVLKAGQTIHYDEVMKQDGHVWVGYTGNSGQRIYLPVRTWNKS
modifications: left off: His-tag, N-terminal, kept
residual binding (ratio of chemical shift changes of mutant to WT, averaged over all amino acids) [2]: 1.6%

B3: N405A: His-tagged lysostaphin SH3b domain with N405A substitution, for NMR (protein)
chain: AKYGTLYKSESASFTPNTDIITRTTGPFRSMPQSGVLKAGQTIHYDEVMKQDGHVWVGYTGNSGQRIYLPVRTWNKS
modifications: left off: His-tag, N-terminal, kept
residual binding (ratio of chemical shift changes of mutant to WT, averaged over all amino acids) [3]: 16%
